According to patent publication US4092420A, “Novel soft N-chloroamino alcohol derivatives exhibiting antibacterial activity” (INTERx Research Corporation, priority 1977, dated 1978):
In brackets after ≈: the same amount, converted by molar mass.

What was measured:
[1] = tested on: C. albicans; test: Minimal inhibitory concentration (MIC), Example V; assay type: cell-based; conditions: Candida albicans
Source text: MINIMAL INHIBITORY CONCENTRATION OF 2-AMINO-2-METHYL-1-PROPYL […]
(§1) THE ANTIBACTERIAL SCREEN - EXAMPLE V

[2] = tested on: P. aeruginosa; test: Minimal inhibitory concentration (MIC), Example V; assay type: cell-based; conditions: Pseudomonas aeruginosa
Description: as §1
(§2) THE ANTIBACTERIAL SCREEN - EXAMPLES W - Z (Autotiter IV)
(§3) (a) Compounds. All compounds to be screened are weighed (approx. 10 mg) on the day preceding the test date. Each compound is solubilized on the day of assay in appropriate solvent and diluted automatically in the Autotiter IV with distilled water (buffer can be employed here also).
(§4) Bacteria: Staphylococcus aureas Smith (or 209), Escherichia coli AB 1932-1, 1100/B22 and Vogel, Streptococcus pyogenes C203 Salmonella typhimurium 14028, Bacillus subtilis 6051-1, Klebsiella pneumoniae 10031, Pseudomonas aeruginosa 9027, Bordetella bronchiseptica 4617 and Staphylococcus epidermidis 12228.
(§5) (c) Inocula. Prior to utilization in the Autotiter IV, all bacteria are cultured for 18-20 hr. (37° C) in tryptose phosphate broth (TP), except, S. pyogenes C203, which is cultured in Brain Heart Infusion broth plus 10% normal horse serum. Immediately prior to testing, each culture is adjusted to an optical density of 0.10 (650 nm), employing a Bausch & Lomb Spectronic 20, and diluted subsequently into double strength medium to approximately 2 × 10^5 viable organisms per ml.
(§6) 1. An automated injector system dispenses 0.05 ml of diluent (sterile H2 O or buffer) to all cups of the autotiter trays from rows 2 through 7.
(§7) 2. The loops (for sequential dilutions of the compounds are moistened by immersion into 70% ethyl alcohol. After removal of excess alcohol by blotting, the loops are moved to the first row of cups in the autotray containing 0.10 ml of the compound to be diluted and tested (usually, this initial concentration is 500 to 1000 mcg/ml, but can be varied upward or downward). The loops are lowered and sequentially transfer the diluted solutions of the compound through row 7.
(§8) Immediately after each dilution is made, each cup is automatically inoculated with 0.05 ml of the appropriate test organism. This inoculation derives from a second injector system containing the organism in double-strength medium. The total operation consists of the automatic dilution of a single compound in each of 8 rows of the Autotiter try.
(§9) After these operations, we reverse the tray and a second compound is diluted over the other one-half of the tray and inoculated, subsequently, with 8 organisms. Thus, for each Autotiter Tray, two compounds are screened against 8 different organisms at dilutions ranging from 1:2 to 1:128.
(§10) (e) Incubation. The inoculated Autotiter trays are incubated at 37° C for 18 - 20 hr. At the end of this period, each tray is examined for the presence or absence of growth (turbidity). The lowest concentration of the compound inhibiting growth is recorded as the minimal inhibitory concentration (MIC).

[3] = tested on: S. aureus; test: Minimal inhibitory concentration (MIC), Example V; assay type: cell-based; conditions: Staphylococcus aureus
Description: as §1, §2, §3, §4, §5, §6, §7, §8, §9, §10

[4] = tested on: S. pyogenes; test: Minimal inhibitory concentration (MIC), Example V; assay type: cell-based; conditions: Streptococcus pyogenes
[5] = tested on: A. niger; test: Minimal inhibitory concentration (MIC), Example V; assay type: cell-based; conditions: Aspergillus niger
Source text: (§11) MINIMAL INHIBITORY CONCENTRATION OF 2-AMINO-2-METHYL-1-PROPYL
(§12) ^a Minimal inhibitory concentration expressed in parts per million
(§13) sequence inhibited the test organism at the higher concentrations.
as §1

[6] = tested on: T. mentagrophytes; test: Minimal inhibitory concentration (MIC), Example V; assay type: cell-based; conditions: Trichophyton mentagrophytes
Source text: as §11, §12, §13, §1

[7] = tested on: E. coli; test: Minimal inhibitory concentration (MIC), Example V; assay type: cell-based; conditions: Escherichia coli
Source text: as §11, §12, §13, §1

[8] = tested on: K. pneumoniae; test: Minimal inhibitory concentration (MIC), Example V; assay type: cell-based; conditions: Klebsiella pneumoniae
Description: as §11, §12, §13, §1
Klebsiella pneumoniae ATCC# 10031
as §2, §3, §4, §5, §6, §7, §8, §9, §10

[9] = tested on: K. pneumoniae; test: Contact germicidal efficiency (sterilization time); assay type: cell-based, Klebsiella pneumoniae
Description: (§14) CONTACT GERMICIDAL EFFICIENCY OF N-CHLORAMINES AS A FUNCTION
(§15) ^a Time intervals screened 0.5, 1, 2, 3, 4 and 5 minutes.
(§16) ^a Time intervals screened 0.5, 1, 2, 3, 4, 5, 6, 7, 8, 9 and 10
(§17) ^a Time intervals screened 0.5, 1, 2, 3, 4, and 5 minutes.
(§18) ^b Time intervals screened 0.5, 1, 2, 3, 4, 5, 6, 7, 8, 9 and 10
(§19) Immediately preceding the screen, the compound is weighed and diluted with a buffer or other solvent to give the final concentration desired. The buffer or solvent chosen depends on the conditions of the screen and could be one of the following: 0.1 M NaOAc, pH 4.6; 0.1 M NaH2 PO4, pH 7.0; 0.1 M Na2 B4 O7, pH 8.8; 35% methanol in one of the aforementioned buffers; 10% Triton × 100 in buffer, etc.
(§20) The positive chlorine concentration of the test solution is then determined iodometrically.
(§21) Media used for the Screen are Nutrient Broth, BBL# 11479 and Nutrient Agar, BBL# 11472 prepared according to label directions. The broth is dispensed in 75 ml amounts of flasks for overnight cultures and in 5 ml amounts to culture tubes for subculturing during the Screen. Agar plates are prepared as usual.
(§22) Overnight cultures are prepared by inoculating from stock cultures into the 75 ml flasks of nutrient broth and incubating for 15 hours at 37° C.
(§23) The iodometrically characterized test solution is dispensed in 5 ml amounts to seven small stoppered flasks. The organisms are screened one at a time as follows:
(§24) A 0.2 ml portion of the overnight culture is inoculated into 5 ml of 0.9% NaCl for use in controls. A 0.2 ml portion of the overnight culture is inoculated into a flask containing 5 ml of the test solution, an automatic timer is simultaneously triggered and the solution mixed. At time intervals of 30 seconds, 1, 2, 3, 4, 5, 6, 7, 8, 9, and 10 minutes a loopful of the inoculated solution is subcultured into 5 ml of sterile nutrient broth and mixed by a Vortex Genie Mixer, the high dilution serving to stop the action of the compound. At the end of the ten minute screen, the entire procedure is repeated for each of the remaining six organisms. All of the subculture tubes are incubated at 37° C and checked for signs of growth by turbidity at 24 hr., 48 hr., 3, 5, and 7 days. The earliest subculture time at which no growth is present in the subculture tube is considered the endpoint and is recorded as that time, e.g., 7 minutes.
(§25) The test solution is prepared and characterized as above but is made up at twice the concentration desired. The solution is diluted 1:1 with Rehydrated Tissue Culture Dessicated Horse Serum, Difco #5357-72 and dispensed in a 5 ml amount to a small flask. The mixture is incubated at Room Temperature for 30 minutes to allow denaturation of the compound by the serum and then screened as above.
(§26) The 5 ml mixture of serum and test solution are prepared in sequence to allow as close to 30 minutes as possible before the beginning of the screen of each organism.
as §4

[10] = tested on: P. aeruginosa; test: Contact germicidal efficiency (sterilization time); assay type: cell-based, Pseudomonas aeruginosa
Description: as §14, §15, §16, §17, §18, §19, §20, §21, §22, §23, §24, §25, §26, §4

[11] = tested on: S. epidermidis; test: Contact germicidal efficiency (sterilization time); assay type: cell-based, Staphylococcus epidermidis
Description: as §14, §15, §16, §17, §18, §19, §20, §21, §22, §23, §24, §25, §26, §4

[12] = tested on: B. bronchiseptica; test: Contact germicidal efficiency (sterilization time); assay type: cell-based, Bordetella bronchiseptica
Description: as §14, §15, §16, §17, §18, §19, §20, §21, §22, §23, §24, §25, §26, §4

[13] = Example X, pH 4.6, no horse serum, IV c 404 ppm (69 PPMCl+), IV g 489 ppm (143 PPMCl+)
[14] = Example X, pH 7.0, no horse serum, IV c 1886 ppm (323 PPMCl+), IV g 409 ppm (120 PPMCl+)
[15] = Example X, pH 9.3, no horse serum, IV c 1704 ppm (292 PPMCl+), IV g 319 ppm (94 PPMCl+)
[16] = Example Z, pH 4.6, absence of horse serum, IV j 79 ppm (21 PPMCl+), IV k 5800 (1057), IV l 1112 (209)
[17] = Example Z, S. pidermidis, pH 4.6, absence of horse serum, IV j 79 ppm (21 PPMCl+), IV k 5800 (1057), IV l 1112 (209)

SMILES: CCCC(=O)OCC(C)(C)N(Cl)Cl [IV f, 2-N,N-Dichloroamino-2-methyl-1-propyl butyrate]
- MIC [1]: > 62.5 µg/mL
- MIC [2]: 62.5 µg/mL (≈ 274 µM)
- MIC [3]: > 62.5 µg/mL
- MIC [4]: 62.5 µg/mL (≈ 274 µM)
- MIC [5]: > 62.5 µg/mL
- MIC [6]: > 62.5 µg/mL
- MIC [7]: > 62.5 µg/mL
- MIC [8]: > 62.5 µg/mL

SMILES: CC(C)(C)C(=O)OCC(C)(C)N(Cl)Cl [IV g, 2-N,N-Dichloroamino-2-methyl-1-propyl 2,2-dimethylproprionate]
- MIC [1]: > 125 µg/mL
- MIC [2]: 250 µg/mL (≈ 1030 µM)
- MIC [3]: 250 µg/mL (≈ 1030 µM)
- MIC [4]: 250 µg/mL (≈ 1030 µM)
- Sterilization Time [9, 13]: 0.5 min
- Sterilization Time [9, 14]: 3 min
- Sterilization Time [9, 15]: 2 min
- Sterilization Time [10, 13]: 0.5 min
- Sterilization Time [10, 14]: 0.5 min
- Sterilization Time [10, 15]: 0.5 min
- Sterilization Time ([11]; Example X, S. epidermidis, pH 4.6, no horse serum, IV c 404 ppm (69 PPMCl+), IV g 489 ppm (143 PPMCl+)): 0.5 min
- Sterilization Time ([11]; Example X, S. epidermidis, pH 7.0, no horse serum, IV c 1886 ppm (323 PPMCl+), IV g 409 ppm (120 PPMCl+)): 2 min
- Sterilization Time ([11]; Example X, S. epidermidis, pH 9.3, no horse serum, IV c 1704 ppm (292 PPMCl+), IV g 319 ppm (94 PPMCl+)): 2 min
- MIC [5]: > 125 µg/mL
- MIC [6]: > 125 µg/mL
- MIC [7]: > 125 µg/mL
- MIC [8]: > 125 µg/mL
- Sterilization Time [12, 13]: 1 min
- Sterilization Time [12, 14]: 2 min
- Sterilization Time [12, 15]: 2 min

SMILES: CCCCCC(=O)OCC(C)(C)N(Cl)Cl [IV h, 2-N,N-Dichloroamino-2-methyl-1-propyl hexanoate]
- MIC [1]: > 62.5 µg/mL
- MIC [2]: > 62.5 µg/mL
- MIC [3]: > 62.5 µg/mL
- MIC [4]: 62.5 µg/mL (≈ 244 µM)
- MIC [5]: > 62.5 µg/mL
- MIC [6]: 62.5 µg/mL (≈ 244 µM)
- MIC [7]: > 62.5 µg/mL
- MIC [8]: > 62.5 µg/mL

SMILES: CCCCCCCC(=O)OCC(C)(C)N(Cl)Cl [IV i, 2-N,N-Dichloroamino-2-methyl-1-propyloctanoate]
- MIC [1]: > 62.5 µg/mL
- MIC [2]: > 62.5 µg/mL
- MIC [3]: 62.5 µg/mL (≈ 220 µM)
- MIC [4]: 62.5 µg/mL (≈ 220 µM)
- MIC [5]: > 62.5 µg/mL
- MIC [6]: 62.5 µg/mL (≈ 220 µM)
- MIC [7]: > 62.5 µg/mL
- MIC [8]: > 62.5 µg/mL

SMILES: CC(C)(COC(=O)c1cccnc1)N(Cl)Cl [IV j, 2-N,N-Dichloroamino-2-methyl-1-propyl nicotinate]
- Sterilization Time [9, 16]: 1 min
- Sterilization Time [10, 16]: 2 min
- Sterilization Time [11, 17]: 3 min
- Sterilization Time [12, 16]: 4 min

SMILES: C[n+]1cccc(C(=O)OCC(C)(C)N(Cl)Cl)c1 [IV l, 2-N,N-Dichloroamino-2-methyl-1-propyl nicotinate methylfluorosulfonate]
- Sterilization Time [9, 16]: 5 min
- Sterilization Time [10, 16]: 3 min
- Sterilization Time [11, 17]: 3 min
- Sterilization Time [12, 16]: 5 min
